In US5294605A, “Amphiphilic peptide compositions and analogues thereof” (The Scripps Research Institute, priority 1991, dated 1994):
Values joined by “and” are separate entries in the source; they are usually repeats but may differ in a detail not shown here. Equal entries are not always repeated. Where two headings read alike, the source gives them in different places. Ends that are not written are not given here.

How the values were obtained:
Assay type in all cases: cell-based
P. aeruginosa ATCC 27853 = test: Antibacterial assay, NCCLS M7-T2 microdilution (Example 15), MIC; conditions: Table XI; Mueller Hinton broth, 16-20 hours 37° C., 1-5×10^5 CFUs/ml
Procedure: (§1) The procedure for the following antibacterial assay is based upon the guidelines of the National Committee for Clinical Laboratory Standards, Document M7-T2, Volume 8, No. 8, 1988.
(§2) Stock solutions of the following Peptides (SEQ ID NO:4) and (SEQ ID NO:64) through (SEQ ID NO:68) in accordance with the present invention are prepared at a concentration of 512 μg/ml in sterile deionized distilled water and stored at -70° C.
(§3) The stock peptide solution was diluted in serial dilutions (1:2) down the wells of a microtiter plate so that the final concentrations of peptides in the wells were 0.25, 0.50, 1, 2, 4, 8, 16, 32, 64, 128, and 256 μg/ml. 1-5×10^5 CFUs/ml of either S. aureus ATCC 25923, E. coli ATCC 25922, or P. aeruginosa ATCC 27853 were added to the wells in full strength Mueller Hinton broth (BBL 11443) from a mid-log culture. The inoculum is standarized spectrophotometrically at 600 nm and is verified by colony counts. […] Minimal inhibitory concentration is defined as the lowest concentration of peptide which produces a clear well in the microtiter plate.
(§4) For purposes of explanation of Table XI below, S is the MIC of the peptide against S. aureus, P is the MIC of the peptide against P. aeruginosa, and E is the MIC of the peptide against E. coli.

E. coli ATCC 25922 = test: as above; conditions: Table XI; Mueller Hinton broth, 16-20 hours 37° C., 1-5×10^5 CFUs/ml
Procedure: as §1, §2, §3, §4

S. aureus ATCC 25923 = test: as above; conditions: Table XI; Mueller Hinton broth, 16-20 hours 37° C., 1-5×10^5 CFUs/ml
Procedure: as §1, §2, §3, §4

Pseudomonas aeruginosa [1] = conditions: Table I; 100 percent growth inhibition, 20 hours, 1.0×10^6 CFU/ml, LB medium
Procedure: (§5) For the following Examples 3-9, antimicrobial assays were carried out in 96-well tissue culture plates. Each well was incubated with a given microorganism (Escherichia coli, Staphylococcus epidermidis, or Pseudomonas aeruginosa) suspended in LB medium. Upon the addition of the parent peptide having the structural formula hereinabove described, or its substitution analogues, or of Peptide I (dissolved in 1 X PBS, pH 7.0) each well contained a final cell density of 1.0×10^6 colony forming units (CFU)/ml. The final peptide concentrations ranged from 1.5 μg/ml to greater than 100 μg/ml.
(§6) Addition of peptides to the wells was defined as time zero. At twenty hours, the plates were placed in a Titertek Multiskan apparatus and the O.D.620 determined. The plates as well as the initial innoculum were incubated at 37° C.
(§7) Five wells per plate contained media alone, while five others contained medium plus cells. These controls were used to eliminate the possibility of media contamination while providing a measure of uninhibited growth of the microorganisms.
(§8) The degree of peptide activity was determined by comparing the substitution analogues with uninhibited growth of the control cells over a twenty-hour period.
(§9) as hereinabove described and analogues thereof wherein a methionine sulfoxide residue was substituted for various amino acid residues of the parent peptide were prepared as hereinabove described in Example 1 and tested for minimum inhibitory concentration with respect to E. coli, P. aeruginosa, and S. epidermidis at a concentration given in μg/ml, and for percent hemolysis of human red blood cells as hereinabove described in Example 2. The minimum inhibitory concentration and percent hemolysis (at a concentration of 100 μg/ml) are listed below in Table I. As used herein, the heading "Amino Acid Residue Substituted" refers to the number of the amino acid residue in the peptide which is substituted with a desired amino acid residue. All other residues remain the same as that of the normal peptide sequence. The term "Minimum Inhibitory Concentration" (MIC) as used herein indicates the minimum concentration of peptide in μg/ml needed to achieve 100 percent effective growth inhibition of the organism.

Escherichia coli [2] = conditions: Table I; 100 percent growth inhibition, 20 hours, 1.0×10^6 CFU/ml, LB medium
Procedure: as §5, §6, §7, §8, §9

[3] = tested on: Staphylococcus epidermidis; test: Antimicrobial assay in 96-well plates, LB medium (Example 2), MIC; conditions: Table I, 100 percent growth inhibition, 20 hours, 1.0×10^6 CFU/ml
Pseudomonas aeruginosa [4] = test: Antimicrobial assay for deletion analogues (Example 10), MIC; conditions: Table VII; 3.5×10^5 CFU/ml, 20 hours, LB medium
Procedure: (§10) For the deletion analogues of the parent peptide further described in Examples 11 and 12, antimicrobial assays were carried out in 96-well tissue culture plates. Each well was incubated with a given microorganism (Escherichia coli, Staphylococcus epidermidis, Pseudomonas aeruginosa, or Staphylococcus aureus) suspended in LB medium. Upon addition of the parent peptide or its deletion analogues (dissolved in 1×PBS<pH7.0), each well contained a final cell density of 1.3×10^5 colony forming units (CFU)/ml of E. coli, or 3.5×10^5 CFU/ml P.aeruginosa, or 3.9×10^5 CFU/ml S. Aureus or 3.0×10^5 CFU/ml S. epidermidis. The final peptide concentrations ranged from 1.5 μg/ml to greater than 100 μg/ml. Addition of peptide to the wells was defined as time zero. At twenty hours, the plates were placed in a Titertek Multiskan apparatus and the O.D. 620 determined. The plates as well as the initial innoculum were incubated at 37° C. Five wells per plate contained medium alone, whereas five others contained medium plus cells. These controls were used to eliminate the possibility of medium contamination, while providing a measure of uninhibited growth of the microorganisms. The degree of peptide activity was determined by comparing the deletion analogues with uninhibited growth of the control cells over a twenty-hour period. The effective growth inhibitation of the deletion analogues is listed in the examples and tables below.

Staphylococcus aureus = test: as above; conditions: Table VII; 3.9×10^5 CFU/ml, 20 hours, LB medium
Procedure: as §10

Escherichia coli [5] = test: as above; conditions: Table VII; 1.3×10^5 CFU/ml, 20 hours, LB medium
Procedure: as §10

[6] = tested on: Staphylococcus epidermidis; test: as above; conditions: Table VII; 3.0×10^5 CFU/ml, 20 hours, LB medium
Procedure: as §10

Substance	MIC P (P. aeruginosa) (P. aeruginosa ATCC 27853)	MIC E (E. coli) (E. coli ATCC 25922)	MIC S (S. aureus) (S. aureus ATCC 25923)	Minimum Inhibitory Concentration P. Aeruginosa (Pseudomonas aeruginosa [1])	Minimum Inhibitory Concentration E. coli (Escherichia coli [2])	Minimum Inhibitory Concentration S. epidermidis [3]	Minimum Inhibitory Concentration P. Aeruginosa (Pseudomonas aeruginosa [4])	Minimum Inhibitory Concentration S. aureus (Staphylococcus aureus)	Minimum Inhibitory Concentration E. coli (Escherichia coli [5])	Minimum Inhibitory Concentration S. epidermidis [6]
Ac-LLKKLKKLLKKLLKLL-NH2 [X-(SEQ ID NO: 4) --NH2]	64 µg/mL	32 µg/mL	32 µg/mL							
Ac-LKLLKKLLKKLKKLLKKL-NH2 [None (parent)]				75 µg/mL	10 µg/mL	2.5 µg/mL	75 µg/mL	128 µg/mL	10 µg/mL	2.5 µg/mL
LLKKLKKLLKKLLKLL-NH2 [(SEQ ID NO: 4) --NH2]	64 µg/mL	32 µg/mL	32 µg/mL							
Ac-LKLLKKLLKKGKKLLKKL-NH2 [X-(SEQ ID NO: 68) --NH2]	8 µg/mL	16 µg/mL	8 µg/mL							
Ac-LKKLLKKLKKLLKKL-NH2 [X-(SEQ ID NO: 66) --NH2]	16 µg/mL	8 µg/mL	8 µg/mL							
Ac-KKLLKKLKKLLKKL-NH2 [X-(SEQ ID NO: 65) --NH2]	16 µg/mL and 32 µg/mL	32 µg/mL	16 µg/mL							
